Here are results for four compounds from US8642807B2, “Crystallized diacetylenic indicator compounds and methods of preparing the compounds” (Temptime Corporation, priority 2007, dated 2014).

Series [1] is described as follows: Room temperature solubility of 4DOD in solvent systems, saturated solution dried and weighed (Example 2A). Type of series: physicochemical. The following applies: about 25° C.; for Calculated solubility of 4DOD: stirred 16 hours. Here is the method: To serve as indicator agent, a […] polymerizable diacetylenic monomer, namely 5,7-dodecadiyn-1,12 diol bis(n-octadecyl urethane), “4DOD” hereinafter, is synthesized in sufficient quantity for preparation of a master batch of ink, by the method described in Yee U.S. Pat. No. 4,215,208 at column 17, lines 47-65 and is stored in a freezer. A small quantity of 4DOD is taken from frozen storage and is tested at room temperature for solubility in various solvent systems employing the following procedure.
100 g of deionized water is weighed into a 200 mL glass beaker. 4DOD powder is added to the glass beaker until the solution is saturated allowing excess 4DOD to remain present as undissolved solid. 75 g of deionized water is weighed into another 200 mL glass beaker, and 25 g acetone is added. 4DOD is then added to the water-acetone solvent system in the glass beaker until the solution is saturated and an excess of 4DOD remains as undissolved solid. 75 g of deionized water is weighed into a third 200 mL glass beaker. 25 g ethanol is added to the water and then 4DOD is added to the water-ethanol mixture until the solution is saturated and an excess of 4DOD remains as undissolved solid. Each solution is stirred on a magnetic plate for 16 hours at a controlled room temperature of about 25° C.
After 16 hours of stirring, 7 g of each solution (soluble portion only, avoiding any undissolved solid material) is transferred to a separate aluminum foil pan. The aluminum foil pans are left to stand under a fume hood for 2 hours to allow any volatile solvent to evaporate, and are then dried in a vacuum oven for one 1 hour. Each aluminum foil pan is then weighed and the solubility of the 4DOD in each solvent system is calculated in terms of the percent of solute based on the weight of the solvent system.

A short description of series [2]: Comparative color-change reactivities of pressed pellets, cyan optical density after ageing at 37, 45 or 70° C. (Example 4). In kind it is physicochemical. The following applies: for color change kinetics / reactivity relative to raw product: 37° C., FIG. 12; for activation energy: color-change (solid-state polymerization) reaction of pellets. As for the experimental part: Sample pellets are prepared from crystalline diacetylenic monomer powder using an E-Z Press 12-Ton Hydraulic Press and KBr Pellet Kit with 13 mm die set, as supplied by International Crystal Laboratories (Garfield, N.J.). Using about 300 mg powder, a pressure of 5 to 8 tons is applied for 2-3 minutes. Samples of 2,4-hexadiyn-1,6-bis(ethylurea) precipitated from dimethyl sulfoxide, methanol and a 4:1 by weight ethanol/water mixture are prepared. Pellets of raw 2,4-hexadiyn-1,6-bis(ethylurea) crystals (“KE raw”), precipitated from a solution in hot glacial acetic acid, using methanol as a precipitant, shortly after the 2,4-hexadiyn-1,6-bis(ethylurea) was synthesized, are included as controls.
While being handled by the edges, an individual pellet is placed in a transparent heat-seal bag, about 50 mm by 115 mm, vacuum sealed and placed into a heat-sealable foil pouch. The foil pouch is vacuum-sealed using a Fuji Impulse tabletop vacuum heat sealer. The sealed foil pouch containing the pellets is stored in a freezer at −30° C., or other suitable temperature, until ready for testing.
The heat-sealed foil pouch samples containing the pellets are placed in a water bath, for example a Huber circulating water bath, set to appropriate temperatures for example 37° C., 45° C. or 70° C., and aged for suitable measured time periods such as a few days at 37° C. or a few hours at 70° C. where the reaction proceeds more rapidly. The samples are weighted to keep them immersed in the water during the test. Timing is started immediately after each pouch is placed into the water bath. The pouch is removed at the end of the designated test period and its optical density is measured.
To measure optical density the pouch is briefly immersed in a second water bath set at 20° C. to quench the sample and prevent further color change during measurement. The foil pouch is cut open leaving the pellet inside the transparent heat-sealed bag. The reaction kinetics of the diacetylenic monomer are determined by measuring the cyan optical density (O.D.) of the aged pellets using an X-Rite 404 color reflection densitometer. The optical density can be measured on an arbitrary scale and used for comparative indications of color change reactivity.
In order to compensate for the thickness of the pellets, which are about 2 mm thick, when using the densitometer, the densitometer can be raised on to an elevated platform of corresponding height.

As for “5,7-dodecadiyn-1,12-bis-n-octadecyl urethane [4DOD]”, the “Calculated solubility of 4DOD” value in series [1] (75% Water 25% Acetone) is 10% wt %; in series [1] (100% Acetone), 32% wt %; in series [1] (100% Ethanol) it was 37% wt %; in series [1] (Water), 0.03% wt %. Further, in series [1] (ethanol or acetone alone), the “solubility in the individual organic solvent alone, in words” value is reported as “remarkably high solubility”. The “solubility in water, in words” value in series [1] (water) is recorded as “minimal solubility”.

In the case of `CCNC(=O)NCC#CC#CCNC(=O)NCC` [2,4-hexadiyn-1,6-bis(ethylurea) crystallized from pyridine], in series [2], the “color change kinetics / reactivity relative to raw product” value is reported as “faster color change kinetics than does the raw product” and the activation energy result is “about 19 kcal/mol”.

Consider `CCNC(=O)NCC#CC#CCNC(=O)NCC` [2,4-hexadiyn-1,6-bis(ethylurea)], for which, in series [2], the “color change kinetics / reactivity relative to raw product” value is “modestly faster reactivity than raw 2,4-hexadiyn-1,6-bis(ethylurea)”. The reactivity profile entry in series [2] (45° C., FIG. 13) is “close to that of the pyridine product”.

`CCNC(=O)NCC#CC#CCNC(=O)NCC` [raw product, 2,4-hexadiyn-1,6-bis(ethylurea), reference compound] displayed an activation energy in series [2] of 23 kcal/mol.
